Laboratory results taken from patent US20060069132A1, “Azolecarboxamide herbicides” (priority 2004, published 2006).

Key:
ducksalad [1] = experiment: Test B flooded paddy test; type: in vivo, Heteranthera limosa; details: 1000 g ai/ha, scale 0 to 100 (0 no effect, 100 complete control)
Summary of the method: (§1)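 Greenhouse test; postemergence application to plants at 1–4 leaves (2–18 cm); paddy species at 2 leaves; evaluated visually vs controls at 13–15 days; scale 0–100 (100 = complete control).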

wheat = experiment: Test B postemergence herbicide test; type: in vivo, Triticum aestivum; set-up: key to Wheat plant response rating: 0 = no effect, 100 = complete control; details: postemergence
Summary of the method: (§2)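 Each value is a visual 0–100 response rating taken against controls 13 to 15 days after treatment in the greenhouse. Plants received formulated chemical postemergence at the 1- to 4-leaf stage or, in flooded paddy, at the 2-leaf stage.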

giant foxtail = experiment: Test B pre-/postemergence herbicide test; type: in vivo, Setaria faberi; details: for Foxtail, Giant plant response rating: postemergence
Summary of the method: (§3)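 Visual rating, 0 (no effect) to 100 (complete control), versus untreated controls after 13–15 d in greenhouse. Pre- and postemergence applications (postemergence plants 2–18 cm, 1–4 leaves); flooded paddy arm at 2-leaf stage. Compounds in non-phytotoxic solvent plus surfactant.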

pigweed = experiment: Test B pre-/postemergence herbicide test; type: in vivo, Amaranthus retroflexus; details: for Pigweed plant response rating: postemergence
Summary of the method: as §3

cocklebur = experiment: Test B pre-/postemergence herbicide test; type: in vivo, Xanthium strumarium; details: for Cocklebur plant response rating: postemergence, scale 0 (no effect) to 100 (complete control)
Summary of the method: (§4)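 Greenhouse pot assay with simultaneous preemergence (treated seed) and postemergence (2–18 cm seedlings) applications of surfactant-containing, non-phytotoxic solvent formulations. Response scored visually 13–15 days later on a 0–100 scale, 100 meaning complete control.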

corn = experiment: Test B pre-/postemergence herbicide test; type: in vivo, Zea mays; details: for Corn plant response rating: postemergence
Summary of the method: as §3

wild oat = experiment: Test B postemergence herbicide test; type: in vivo, Avena fatua; details: postemergence
Summary of the method: as §2

lambsquarters = experiment: Test B pre-/postemergence herbicide test; type: in vivo, Chenopodium album; details: for Lambsquarters plant response rating: postemergence
Summary of the method: as §3

barnyardgrass [2] = experiment: Test B flooded paddy test; type: in vivo, Echinochloa crus-galli; details: 1000 g ai/ha, scale 0 to 100 (0 no effect, 100 complete control)
Summary of the method: as §1

barnyardgrass [3] = experiment: Test B pre-/postemergence herbicide test; type: in vivo, Echinochloa crus-galli; details: for Barnyardgrass plant response rating: postemergence, scale 0 (no effect) to 100 (complete control)
Summary of the method: as §4

rice [4] = experiment: Test B pre-/postemergence herbicide test; type: in vivo, Oryza sativa; details: 0 = no effect, 100 = complete control, preemergence
Summary of the method: as §3

[5] = tested on: smallflower umbrella sedge; experiment: Test C flooded paddy test; type: in vivo, Cyperus difformis
large crabgrass = experiment: Test B pre-/postemergence herbicide test; type: in vivo, Digitaria sanguinalis; details: for Crabgrass, Large plant response rating: postemergence
Summary of the method: as §3

Surinam grass = experiment: Test B pre-/postemergence herbicide test; type: in vivo, Urochloa decumbens; details: for Surinam Grass plant response rating: postemergence
Summary of the method: as §3

blackgrass = experiment: Test B postemergence herbicide test; type: in vivo, Alopecurus myosuroides; details: postemergence, visual rating, scale 0 (no effect) to 100 (complete control)
Summary of the method: as §1

velvetleaf = experiment: Test B pre-/postemergence herbicide test; type: in vivo, Abutilon theophrasti; details: for Velvetleaf plant response rating: postemergence
Summary of the method: as §3

ducksalad [6] = experiment: Test C flooded paddy test; type: in vivo, Heteranthera limosa
morningglory = experiment: Test B pre-/postemergence herbicide test; type: in vivo, Ipomoea coccinea; details: for Morningglory plant response rating: postemergence
Summary of the method: as §4

rice [7] = experiment: Test B flooded paddy test; type: in vivo, Oryza sativa; details: 1000 g ai/ha, scale 0 to 100 (0 no effect, 100 complete control)
Summary of the method: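 Read-out: visual comparison with controls, scored 0 to 100, where 100 means complete control and 0 no effect. Formulated chemicals were applied postemergence to plants 2–18 cm tall (1- to 4-leaf), or to flooded-paddy plants at the 2-leaf stage, then held 13 to 15 days under glass.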

[8] = tested on: small flower umbrella sedge; experiment: Test B flooded paddy test; type: in vivo, Cyperus difformis; details: 1000 g ai/ha, scale 0 to 100 (0 no effect, 100 complete control)
Summary of the method: as §1

barnyardgrass [9] = experiment: Test C flooded paddy test; type: in vivo, Echinochloa crus-galli
Summary of the method: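 Ratings (0 = no effect, 100 = complete control) come from visual comparison with untreated plants after 12 to 14 days in the greenhouse. Treatment was postemergence at the 1- to 4-leaf stage (2–18 cm), or at the 2-leaf stage for the flooded paddy barnyardgrass.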

rice [10] = experiment: Test C flooded paddy test; type: in vivo, Oryza sativa
Summary of the method: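 Postemergence sprays applied to plants 2 to 18 cm tall (1- to 4-leaf stage); paddy species grown to 2-leaf stage under flooding. After 12 to 14 days in greenhouse, visual rating versus untreated controls on 0–100 scale (0 no effect, 100 complete control).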

[11] = 125 g ai/ha, visual rating, scale 0 (no effect) to 100 (complete control)
[12] = 500 g ai/ha, scale 0 to 100, 0 is no effect, 100 is complete control
[13] = 125 g ai/ha, 0 = no effect, 100 = complete control, preemergence
[14] = 500 g ai/ha, visual rating, 0 = no effect, 100 = complete control, preemergence
[15] = 125 g ai/ha, scale 0 to 100 (0 no effect, 100 complete control)
[16] = 250 g ai/ha, scale of 0 to 100, 0 is no effect, 100 is complete control
[17] = 500 g ai/ha, visual rating after 12 to 14 days, scale 0 to 100 (0 no effect, 100 complete control)

## CCNC(=O)c1cc(NC(=O)c2cc(C(C)(C)C)nn2CC)c(F)cc1F [Compound 252]
Ducksalad [1]
  Ducksalad plant response rating: 90
wheat; [11]
  Wheat plant response rating: 20
wheat; [12]
  Wheat plant response rating: 20
Giant foxtail; [13]
  Foxtail, Giant plant response rating (0 to 100 scale): 10
Giant foxtail; [14]
  Plant response rating, Foxtail, Giant: 90
Giant foxtail; [11]
  Foxtail, Giant plant response rating: 20
Giant foxtail; [12]
  Foxtail, Giant plant response rating: 30
pigweed; [14]
  Plant response rating, Pigweed: 100
pigweed; [11]
  Pigweed plant response rating: 20
pigweed; [12]
  Pigweed plant response rating: 30
cocklebur; [13]
  Cocklebur plant response rating (0 to 100 scale): 0
cocklebur; [14]
  Plant response rating, Cocklebur: 0
cocklebur; 125 g ai/ha, visual rating
  Cocklebur plant response rating: 20
cocklebur; 500 g ai/ha, visual rating
  Cocklebur plant response rating: 40
corn; [13]
  Corn plant response rating (0 to 100 scale): 0
corn; [14]
  Plant response rating, Corn: 60
corn; [11]
  Corn plant response rating: 10
corn; [12]
  Corn plant response rating: 10
Wild oat; [11]
  Oat, Wild plant response rating: 20
Wild oat; [12]
  Oat, Wild plant response rating: 20
lambsquarters; [14]
  Plant response rating, Lambsquarters: 100
lambsquarters; [11]
  Lambsquarters plant response rating: 30
lambsquarters; [12]
  Lambsquarters plant response rating: 30
Barnyardgrass [2]
  Barnyardgrass plant response rating: 70
Barnyardgrass [3]; [13]
  Barnyardgrass plant response rating (0 to 100 scale): 0
Barnyardgrass [3]; [14]
  Plant response rating, Barnyardgrass: 70
Barnyardgrass [3]; 125 g ai/ha, visual rating
  Barnyardgrass plant response rating: 0
Barnyardgrass [3]; 500 g ai/ha, visual rating
  Barnyardgrass plant response rating: 10
Rice [4]; 125 g ai/ha
  Rice plant response rating (0 to 100 scale): 30
Rice [4]; 500 g ai/ha, visual rating
  Plant response rating, Rice: 50
[5]; 62 g ai/ha, scale 0 to 100
  Sedge, Umbrella plant response rating: 0
[5]; [15]
  Sedge, Umbrella plant response rating: 40
[5]; [16]
  Sedge, Umbrella plant response rating: 50
[5]; [17]
  Plant response rating, Sedge, Umbrella: 75
Large crabgrass; [13]
  Crabgrass, Large plant response rating (0 to 100 scale): 80
Large crabgrass; [14]
  Plant response rating, Crabgrass, Large: 100
Large crabgrass; [11]
  Crabgrass, Large plant response rating: 0
Large crabgrass; [12]
  Crabgrass, Large plant response rating: 10
Surinam grass; [13]
  Surinam Grass plant response rating (0 to 100 scale): 10
Surinam grass; [14]
  Plant response rating, Surinam Grass: 70
Surinam grass; [11]
  Surinam Grass plant response rating: 10
Surinam grass; [12]
  Surinam Grass plant response rating: 20
blackgrass; 125 g ai/ha
  Blackgrass plant response rating: 10
blackgrass; 500 g ai/ha
  Blackgrass plant response rating: 20
velvetleaf; [13]
  Velvetleaf plant response rating (0 to 100 scale): 0
velvetleaf; [14]
  Plant response rating, Velvetleaf: 60
velvetleaf; [11]
  Velvetleaf plant response rating: 30
velvetleaf; [12]
  Velvetleaf plant response rating: 30
Ducksalad [6]; 62 g ai/ha, scale 0 to 100
  Ducksalad plant response rating: 0
Ducksalad [6]; [15]
  Ducksalad plant response rating: 0
Ducksalad [6]; [16]
  Ducksalad plant response rating: 15
Ducksalad [6]; [17]
  Plant response rating, Ducksalad: 80
morningglory; [13]
  Morningglory plant response rating (0 to 100 scale): 0
morningglory; [14]
  Plant response rating, Morningglory: 0
morningglory; [11]
  Morningglory plant response rating: 20
morningglory; [12]
  Morningglory plant response rating: 20
Rice [7]
  Rice plant response rating: 80
[8]
  Sedge, Umbrella plant response rating: 80
Barnyardgrass [9]; 62 g ai/ha, scale 0 to 100 (0 no effect, 100 complete control)
  Barnyardgrass plant response rating: 0
Barnyardgrass [9]; [15]
  Barnyardgrass plant response rating: 0
Barnyardgrass [9]; [16]
  Barnyardgrass plant response rating: 15
Barnyardgrass [9]; [17]
  Plant response rating, Barnyardgrass: 45
Rice [10]; 62 g ai/ha, scale 0 to 100
  Rice plant response rating: 0
Rice [10]; [15]
  Rice plant response rating: 45
Rice [10]; [16]
  Rice plant response rating: 55
Rice [10]; [17]
  Plant response rating, Rice: 60
